Reference: the OPERA property sets (Mansouri et al. 2018)

Settings: for log10 BCF / log10 biotransformation half-life (days): fish

SMILES	melting point [°C]	boiling point [°C]	other results
C[N+](C)(C)CCOC(=O)NCCCCCCNC(=O)OCC[N+](C)(C)C.[Br-].[Br-]	175	–	–
N#Cc1ccc2ccccc2c1	66	306	–
N[C@H](CCC(=O)O)C(=O)O	201	–	–
CNCCN	–	115	–
CN(C(=O)COc1nc2ccccc2s1)c1ccccc1	135	–	log10 vapour pressure (mmHg): -8.32
CC(N)=S	116	–	log10 Koc (L/kg): 0.78; ready biodegradability: not readily biodegradable
BrCc1ccc2ccccc2c1	56	–	–
O=C(O)c1c(Cl)ccc(Cl)c1Cl	124	–	log10 vapour pressure (mmHg): -3.26; ready biodegradability: not readily biodegradable; log10 BCF: 0.54
O=C(O)c1c(F)ccc(F)c1F	130	–	–
O=CC(Br)(Br)Br	-57.5	174	log10 vapour pressure (mmHg): 0.183
CS(=O)(=O)Nc1ccc([N+](=O)[O-])cc1Oc1ccccc1	144	–	–
CC/C=C\CCO	–	–	ready biodegradability: readily biodegradable
CCC(C)OC(=O)CCC(=O)OC(C)CC (stereo not drawn)	–	256	–
COC(=O)c1ccccc1CS(=O)(=O)NC(=O)Nc1nc(OC)cc(OC)n1	187	–	log10 Koc (L/kg): 2.5; log10 vapour pressure (mmHg): -13.7
CCCCCCCC(=O)c1ccccc1	22.8	285	–
O=Cc1cccs1	–	197	–
Cc1cc2nc3c(=O)[nH]c(=O)nc-3n(C)c2cc1C	320	–	–
CCCC(Br)CC (stereo not drawn)	–	142	–
CCCC(C)(COC(N)=O)COC(N)=O	105	–	–
CN(C)c1nc(=O)n(C2CCCCC2)c(=O)n1C	116	–	log10 Koc (L/kg): 1.73; log10 vapour pressure (mmHg): -6.65
CC(C)CCCC(C)(C)O	–	173	–
Oc1c(Br)cccc1Br	56.5	255	–

SMILES	melting point [°C]	boiling point [°C]	other results
Cc1cc(C)c(C)c(C)c1C	54.5	232	log10 vapour pressure (mmHg): -1.46
c1ccc2c(c1)ccc1cccnc12	52	339	log10 vapour pressure (mmHg): -3.66
CCNc1nc(Cl)nc(NC(C)C)n1	173	–	log10 Koc (L/kg): 2.24; log10 vapour pressure (mmHg): -6.54; ready biodegradability: not readily biodegradable; log10 BCF: 0.9; log10 biotransformation half-life (days): -1.05
O=[N+]([O-])c1ccc2c3c(cccc13)CC2	100	–	–
NC(=O)N=NC(N)=O	–	–	log10 vapour pressure (mmHg): -9.73; ready biodegradability: not readily biodegradable
N#CCC(N)=C(C#N)C#N	172	–	–
COC(=O)CCl	-32.1	130	log10 vapour pressure (mmHg): 0.882; ready biodegradability: readily biodegradable
COc1ccc(CCNCC(O)COc2cccc(C)c2)cc1OC (stereo not drawn)	138	–	–
CCC=C(C)C	-135	67.3	log10 vapour pressure (mmHg): 2.2
COc1c(Cl)ccc(Cl)c1Cl	45	227	log10 Henry constant (atm·m³/mol): -3.54; log10 BCF: 2.52
Brc1ccc(Oc2ccccc2Br)cc1	–	–	log10 Koa: 8.47
CCOc1ccccc1N	–	232	–
Oc1ccccc1Cc1ccccc1	21	312	–
CC1=CC2CC1C1C(=O)OC(=O)C21 (stereo not drawn)	–	–	ready biodegradability: not readily biodegradable
CCCOC(C)=O	-93	102	log10 Henry constant (atm·m³/mol): -3.66; log10 Koa: 3.17; log10 vapour pressure (mmHg): 1.56; ready biodegradability: readily biodegradable
CCCCC(CC)COC(=O)/C=C/C(=O)OCC(CC)CCCC (stereo not drawn)	-10	300	–
CC(C)(C)OO	-8	–	log10 vapour pressure (mmHg): 0.738; ready biodegradability: not readily biodegradable
CCC(O)CO (stereo not drawn)	–	194	log10 vapour pressure (mmHg): -1.3; ready biodegradability: readily biodegradable
O=C(c1ccc(O)cc1O)c1ccc(O)cc1O	202	–	–
O=C1CC(C(=O)O)CC(=O)C1=C(O)C1CC1 (stereo not drawn)	144	–	log10 vapour pressure (mmHg): -7.76
COC(=O)c1ccc([N+](=O)[O-])cc1	95	–	–
COc1cc(C(=O)O)ccc1O	212	–	ready biodegradability: readily biodegradable

SMILES	melting point [°C]	boiling point [°C]	other results
OCCc1ccc(Cl)cc1	–	259	–
COC(=O)C(C)N(C(=O)c1ccco1)c1c(C)cccc1C (stereo not drawn)	70	–	log10 vapour pressure (mmHg): -6.28
C=CC(C)=O	–	81.4	log10 Henry constant (atm·m³/mol): -4.33; ready biodegradability: not readily biodegradable
CC(C)C(c1ccccc1)C(C)C	-24.5	221	–
FC(F)(Cl)C(F)(F)C(F)(F)C(F)(F)C(F)(F)C(F)(F)C(F)(F)C(F)(F)Cl	–	151	–
CCCCCC(C)(C)C	-113	133	log10 biodegradation half-life (days): 0.778; log10 vapour pressure (mmHg): 1.03
FC(F)(Cl)C(F)(Cl)Cl	-35	47.7	log10 vapour pressure (mmHg): 2.56; ready biodegradability: not readily biodegradable; log10 BCF: 1.7
C[C@]12CCC(=O)C[C@@H]1CC[C@@H]1[C@@H]2CC[C@]2(C)[C@@H](O)CC[C@@H]12	181	–	–
OC(C(F)(F)F)C(F)(F)F	-4	59	log10 Henry constant (atm·m³/mol): -4.37; log10 vapour pressure (mmHg): 2.2; ready biodegradability: not readily biodegradable; log10 BCF: 0.4; log10 biotransformation half-life (days): -1.32
Nc1cc(Cl)c(Cl)c(Cl)c1	99	–	log10 BCF: 2.36; log10 biotransformation half-life (days): 0.28
CCCCCCCCCCCCCCCCCc1ccccc1	32	397	–
O=[N+]([O-])c1ccc(Cl)c(C(F)(F)F)c1	22	232	–
C/C(=N\C#N)N(C)Cc1ccc(Cl)nc1	98.9	–	–
Cn1c(=S)sc2ccccc21	90	335	–
Cc1cccc2ccccc12	-30.4	245	log10 Henry constant (atm·m³/mol): -3.29; log10 Koc (L/kg): 3.36; log10 biodegradation half-life (days): 0.962; log10 vapour pressure (mmHg): -1.17; ready biodegradability: not readily biodegradable; log10 BCF: 1.73
O=C1C[C@H]2CCCC[C@H]2C1	-1	222	–
N#CCCCBr	–	206	–
CCC(C)CCC(C)(C)C (stereo not drawn)	–	151	–
CCOS(=O)(=O)c1ccc(C)cc1	34.5	–	–
CC1(C(=O)O)CCCCC1	37.5	234	–
O=C(O)Cc1cc(I)c(Oc2ccc(O)c(I)c2)c(I)c1	182	–	–
C1=CCC1	–	2	–

SMILES	melting point [°C]	boiling point [°C]	other results
CC1OC(=O)C(C)OC1=O (stereo not drawn)	118	–	–
CNCCS(=O)(=O)O	242	–	ready biodegradability: readily biodegradable
CCCOC/C(=N\c1ccc(Cl)cc1C(F)(F)F)n1ccnc1	63.5	–	log10 vapour pressure (mmHg): -5.85
C#CCCC(=O)O	57.7	–	–
CCOc1ccc(N)c(N)c1	71.5	295	–
C=C(C)C#N	-35.8	90.3	log10 vapour pressure (mmHg): 1.85; ready biodegradability: readily biodegradable
CCS(=O)CCSP(=O)(OC)OC (stereo not drawn)	–	–	log10 Koc (L/kg): 1; log10 vapour pressure (mmHg): -4.55
CC(C)=NO	61	136	–
CC=CC(C)C(=O)O (stereo not drawn)	–	199	–
OCCCCCCCCCO	45.8	–	–
c1cnc(N2CCN(Cc3ccc4c(c3)OCO4)CC2)nc1	98	–	–
CC(C)(O)C(F)(F)F	–	81	–
O=C1C=C2C(=CCOC2O)O1 (stereo not drawn)	111	–	–
O=[N+]([O-])c1c(Cl)cc(Cl)cc1Cl	72	–	ready biodegradability: not readily biodegradable; log10 BCF: 2.47; log10 biotransformation half-life (days): 0.71
O=C(O)c1cccc2c(Cl)cccc12	245	–	–
CCC(C)(CC(=O)O)CC(=O)O	87	261	–
FC(F)(F)c1nc2ccccc2[nH]1	210	–	–
Clc1cc2c(cc1Cl)Oc1c(cc(Cl)c(Cl)c1Cl)O2	240	–	log10 Koa: 10.6; log10 vapour pressure (mmHg): -9.36; log10 BCF: 4.26; log10 biotransformation half-life (days): 1.56
Nc1nc(=O)[nH]cc1F	296	–	–
